# Measured values taken from PubChem BioAssay AID1963846 (Molecular Pharmacology Branch, DTP, NCI, 2024).
# Tested on: 454973-116-R2-J3-PDC complex spheroid viability
# Assay: Anticancer human tumor 454973-116-R2-J3-PDC patient-derived pancreatic carcinoma cell line growth inhibition [POLQ]
# Conditions: for IC50: curve of first compound; for viability, T/C: stronger effect = lower value
# Procedure: Multicellular complex tumor spheroid response to Polymerase (POL) inhibitors (novobiocin, ART-558, RP6685) in combination with a variety of drugs and investigational agents in selected tumor cell lines
# The POL inhibitors (novobiocin, ART-558, and RP6685) were evaluated both individually and in combination with standard of care and investigational anticancer small molecules within a complex spheroid model of solid tumors. . Complex spheroids include a stromal component modeled by human endothelial cells (HUVEC) and fibroblasts modeled by human mesenchymal stem cells (MSCs). The concentration ranges selected for each drug and investigational agent were based upon clinically achievable concentrations if the clinical Cmax of the agent was known.
# Compounds. The drugs and investigational agents: novobiocin (NSC847541), ART-558 (NSC835418), RP-6685 (NSC848927), peposertib (NSC802822), ceralasertib (NSC780249), elimusertib (NSC800525), camonsertib (NSC841442), AZD-1390 (NSC803789), olaparib (NSC753686), talazoparib (NSC767125), rucaparib (NSC756644), sotorasib (NSC818433), MRTX-1133 (NSC836407), SN-38 (NSC673596), topotecan (NSC609699), epotoside (NSC141540), doxorubicin (NSC123127), gemcitabine (NSC613327), 5-fluorouracil (NSC19893), paclitaxel (NSC125973), vemurafenib (NSC761431), MSA-2 (NSC828583), SN-011 (NSC837082), adavosertib (NSC754352), prexasertib (NSC758257), carboplatin (NSC241240) and oxaliplatin (NSC266046), were obtained from the National Cancer Institute (NCI) Developmental Therapeutics Program Chemical Repository (21). The FDA-approved anticancer drug set is available from the Developmental Therapeutics Program at https://dtp.cancer.gov/organization/dscb/obtaining/. […] The stock solutions were prepared in dimethyl sulfoxide (DMSO, Sigma-Aldrich, St. Louis, MO, cat. D2650), except for the platinum compounds which were prepared in saline (Quality Biological, Gaithersburg, MD, cat. 114-055-101), at 800-fold the tested concentration and stored at -70 degrees C prior to their use. All drugs and investigational agents were tested over a range starting from a high concentration at or near the clinical Cmax and decreasing in half-log increments. If the clinical Cmax for an agent had not been determined, the highest concentration tested was 10 microM, except for SN-38, which was tested at a high concentration of 1 microM.
# Cell Culture. All cells were maintained in an incubator at 37 degrees C and 5% CO2 with 95% humidity. The PDC lines were cultured according to standard operating procedures established by the NCI PDMR (https://pdmr.cancer.gov). Table 3 of the manuscript, lists the cell lines along with the number of the three cell types plated to form the mct-spheroids and media for tumor cell growth. After thawing, all PDC lines, except 997537-175-T-J1-PDC and 415267-285-R-J2-PDC, were cultured in Matrigel-coated flasks prepared with a working solution of 1X Ham's F-12 nutrient mix, without supplementation (Thermo Fisher Scientific, cat. 11765054), 100 U/mL penicillin-streptomycin (Thermo Fisher Scientific, cat. 15140122), and 2.5% Matrigel (Corning Inc., Corning, NY, cat. 354248) for the first three passages. The two PDC lines 997537-175-T-J1-PDC and 415267-285-R-J2-PDC were cultured on uncoated flasks. The 857933-349-R-J2-PDC line was cultured in 6C/Colon 1B media containing advanced DMEM/F-12 (Thermo Fisher Scientific, cat. 12634028), 10 mM HEPES (Thermo Fisher Scientific, cat. 15630080), 1X GlutaMAX supplement (Thermo Fisher Scientific, cat. 35050061), 0.1 mg/mL primocin (InvivoGen, San Diego, CA, cat. ant-pm-2), 10% defined fetal bovine serum, heat inactivated (HyClone Laboratories Inc., Logan, UT, cat. SH30070.03HI), 50% L-WRN conditioned media (ATCC, cat. CRL-3276), 1.25 mM N-Acetyl-L-cysteine (Sigma-Aldrich, cat. A9165), 10 mM nicotinamide (Sigma-Aldrich, cat. N0636), 1X B-27 supplement (Thermo Fisher Scientific, cat. 17504044), 1X N-2 supplement (Thermo Fisher Scientific, cat. […]
# 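Further: spheroids exposed to drugs for seven days before measurement.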
# 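Wherever viability, T/C is given: percent viability relative to DMSO vehicle control wells taken as 100%.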
compound,measurement,setting,value
CC1COCCN1c1cc(-c2ccnn2C)c2ccnc(-c3ccn[nH]3)c2n1 (configuration not stated) + Cc1cccc(N(C)C(=O)C2C(O)CCN2c2nc(C)cc(C(F)(F)F)c2C#N)c1,IC50,second compound 0.0316 µM,207 nM
same,IC50,second compound 0.1 µM,202 nM
same,IC50,second compound 0.316 µM,198 nM
same,IC50,second compound 1 µM,195 nM
same,IC50,second compound 3.16 µM,192 nM
same,IC50,second compound 10 µM,181 nM
same,"viability, T/C","second compound 0.0316 µM, first compound 0.0316 µM",95.3%
same,"viability, T/C","second compound 0.0316 µM, first compound 0.1 µM",73.4%
same,"viability, T/C","second compound 0.0316 µM, first compound 0.316 µM",37%
same,"viability, T/C","second compound 0.0316 µM, first compound 1 µM",21.7%
same,"viability, T/C","second compound 0.0316 µM, first compound 3.16 µM",22.3%
same,"viability, T/C","second compound 0.0316 µM, first compound 10 µM",25.4%
same,"viability, T/C","second compound 0.1 µM, first compound 0.0316 µM",92.6%
same,"viability, T/C","second compound 0.1 µM, first compound 0.1 µM",74.4%
same,"viability, T/C","second compound 0.1 µM, first compound 0.316 µM",35%
same,"viability, T/C","second compound 0.1 µM, first compound 1 µM",20.8%
same,"viability, T/C","second compound 0.1 µM, first compound 3.16 µM",21.3%
same,"viability, T/C","second compound 0.1 µM, first compound 10 µM",27.8%
same,"viability, T/C","second compound 0.316 µM, first compound 0.0316 µM",97.2%
same,"viability, T/C","second compound 0.316 µM, first compound 0.1 µM",73.3%
same,"viability, T/C","second compound 0.316 µM, first compound 0.316 µM",34.5%
same,"viability, T/C","second compound 0.316 µM, first compound 1 µM",20%
same,"viability, T/C","second compound 0.316 µM, first compound 3.16 µM",20.1%
same,"viability, T/C","second compound 0.316 µM, first compound 10 µM",25%
same,"viability, T/C","second compound 1 µM, first compound 0.0316 µM",105%
same,"viability, T/C","second compound 1 µM, first compound 0.1 µM",71.7%
same,"viability, T/C","second compound 1 µM, first compound 0.316 µM",35.3%
same,"viability, T/C","second compound 1 µM, first compound 1 µM",21.3%
same,"viability, T/C","second compound 1 µM, first compound 3.16 µM",22%
same,"viability, T/C","second compound 1 µM, first compound 10 µM",25.4%
same,"viability, T/C","second compound 3.16 µM, first compound 0.0316 µM",113%
same,"viability, T/C","second compound 3.16 µM, first compound 0.1 µM",71.8%
same,"viability, T/C","second compound 3.16 µM, first compound 0.316 µM",34.1%
same,"viability, T/C","second compound 3.16 µM, first compound 1 µM",21.7%
same,"viability, T/C","second compound 3.16 µM, first compound 3.16 µM",21.8%
same,"viability, T/C","second compound 3.16 µM, first compound 10 µM",26.4%
same,"viability, T/C","second compound 10 µM, first compound 0.0316 µM",97.9%
same,"viability, T/C","second compound 10 µM, first compound 0.1 µM",67.7%
same,"viability, T/C","second compound 10 µM, first compound 0.316 µM",34.2%
same,"viability, T/C","second compound 10 µM, first compound 1 µM",19.5%
same,"viability, T/C","second compound 10 µM, first compound 3.16 µM",24.4%
same,"viability, T/C","second compound 10 µM, first compound 10 µM",23.1%
